From PMC5154303, “Flavonol and imidazole derivatives block HPV16 E6 activities and reactivate apoptotic pathways in HPV^+ cells” (Cell Death & Disease, 2016) come the findings set out here.

Like-named read-outs stand apart in the source and are kept apart here.

Assay [1] has as its target GST-caspase 8/His-caspase 8 (Homo sapiens, UniProt Q14790). In words: AlphaScreen counter-screen GST-caspase 8/His-caspase 8. The class given is binding. Here is the method:
(§1) Figure 2 3-(1H-indol-1yl)propan-1-amine (1), three benzimidazole derivatives (2–4), and spinacine (5) inhibit protein–protein interactions. Five compounds at the indicated concentrations (1.4 μM–3.2 mM) were tested using our bead-based screening assay for their ability to inhibit three different protein/protein interactions: (a) GST-E6/His-caspase 8; (b) GST-E6/HisE6AP; and (c) GST-caspase 8/His-caspase 8. Binding in the presence of 1.4 μM of the test compound was set at 100%. Experiments were performed in triplicate, and error bars indicate the S.D.
To ask whether this inhibition was specific, we employed a counter-screening assay in which we assessed the ability of candidates to inhibit the binding of GST-caspase 8 to His-caspase 8; those that did were to be eliminated. In this counter-screening assay, the materials in each well were the same as in the primary screen, with the exception that GST-caspase 8 replaced GST-E6.
(§2) AlphaScreen Technology was used to assess the interactions between GST-E6, GST-caspase 8, His-E6AP, and His-caspase 8. Binding assays were performed in white 384-well plates (Perkin-Elmer) in a total volume of 25 μl as previously described.[33] Briefly, 5 μl (50 ng) of GST-E6 and 5 μl (87.5 ng) of His-caspase 8 were included in each reaction mixture with 5 μl blocking buffer (0.5 mg BSA, 0.5% Tween 20 in PBS) in the absence or presence of 10 μM of each test chemical. Members of the library were present at 10 μM in DMSO. After a 1-h incubation of the mixture at room temperature, 5 μl donor beads and 5 μl acceptor beads (Perkin-Elmer) were added to each well according to the manufacturer's protocol. The mixture was incubated in the dark at room temperature overnight, and the emitted signal was detected using the Envision Multilabel plate reader (Perkin-Elmer). In the presence of test chemicals, the binding affinity was calculated as a percentage of the binding in the presence of carrier only (DMSO).
In general terms: Alpha assays give light when donor and acceptor beads are brought close together.

Another assay concerns the target T1, GST-E6/His-E6AP (Human papillomavirus type 16, UniProt P03126).
T1 construct: made in house
As to the kind of experiment: AlphaScreen bead-based binding assay GST-E6/His-E6AP. The arrangement: species or system HPV 16. The conditions noted are these: for EC50 for GST-E6/His-E6AP interaction: bead-based assay, 1.4 μM–3.2 mM tested. As for the experimental part:
as §1
(§3) The construction of the pGEX-E6, pTriEx-E6AP, and pTriEx-Caspase-8 DED plasmids has been reported.[33] Expression and purification of GSTE6, His-E6AP, and His-Caspase-8 DED were carried out as previously described.[33], [37] GST-tagged and His-tagged proteins were diluted into GST dilution buffer (PBS pH 8.0, 5% glycerol, 2 mM DTT) and His dilution buffer (20 mM Hepes pH 7.4, 150 mM NaCl, 2 mMKCl, 5% glycerol, 2 mM DTT), respectively. Protein concentration was measured using Coomassie Plus – The Better Bradford Assay Reagent (Thermo Scientific, Waltham, MA, USA). Purity of the isolated proteins was estimated following separation by sodium dodecyl sulfate-polyacrylamide gel electrophoresis (SDS-PAGE) and Coomassie staining.
as §2

The target of the next assay is T2, GST-E6/His-caspase 8 (Human papillomavirus type 16, UniProt P03126).
T2 construct: made in house
T2 sequence (P03126 whole entry): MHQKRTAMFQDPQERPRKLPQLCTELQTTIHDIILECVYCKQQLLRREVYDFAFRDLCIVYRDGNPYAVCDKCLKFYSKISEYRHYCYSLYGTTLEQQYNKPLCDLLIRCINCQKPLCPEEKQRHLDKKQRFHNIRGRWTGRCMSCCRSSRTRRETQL
In words: AlphaScreen bead-based binding assay GST-E6/His-caspase 8. More on the design: species or system HPV 16. To be noted: for EC50 for GST-E6/His-caspase 8 interaction: bead-based assay, 1.4 μM–3.2 mM tested. Here is the method:
as §1, §3, §2

The next assay has as its system SiHa cells. As to the kind of experiment: TRAIL-induced apoptosis in SiHa cells (MTT). The class given is cell-based, human. The conditions noted are these: SiHa cells, compound 4 h prior to TRAIL 100 ng/ml + cycloheximide 5 μg/ml, overnight, MTT. Here is the method: Figure 3 (a) HPV^+ SiHa cells are resistant to TRAIL-induced apoptosis as compared with the human osteosarcoma cell line U2OS. Cells (2 × 10^4 cells per well) were seeded into a 96-well plate, allowed to incubate overnight, and then treated with the indicated concentration of TRAIL in the presence of cycloheximide (5 μg/ml). The viability of cells was measured after overnight incubation using the MTT assay; the viability of cells untreated with TRAIL was set at 100% for each group. (b) The indicated concentrations of three small molecules were added to SiHa cells, and an MTT assay was preformed after overnight incubation. The viability of cells untreated with small molecules was set as 100%. (c) The indicated concentrations of myricetin or spinacine were added 4 h prior to TRAIL (100 ng/ml) in the presence of cycloheximide (5 μg/ml) and incubated at 37 °C overnight. The viability of cells untreated with small molecules was set at 100%. (d and e) SiHa cells (2 × 10^4 cells per well) were seeded into a 96-well plate and allowed to incubate overnight. In all, 100 μM of myricetin and 50 μM of spinacine were added 4 h prior to either (d) doxorubicin or (e) cisplatin. Cell viability was measured after overnight incubation using the MTT assay, and the viability of cells untreated with either myricetin or spinacine was set at 100%. Experiments were performed in triplicate, and error bars indicate the S.D.
Figure 5 Myricetin and spinacine (5) can re-sensitize HPV^+, but not HPV^−, cells to treatment with TRAIL. SiHa (2 × 10^4 cells per well) and C33A cells (1 × 10^4 cells per well) were seeded into a 96-well plate and allowed to incubate overnight, and then cells were pretreated in the presence or absence of (a) myricetin (100 μM) or (b) spinacine (50 μM) for 4 h. The indicated concentration of TRAIL along with cycloheximide (5 μg/ml) was added, and the cells were allowed to incubate overnight. Cell viability was measured by MTT assay, and the viability of cells untreated with TRAIL was set at 100%. Experiments were performed in triplicate, and error bars indicate the S.D.
The extracellular domain of human TRAIL was cloned into a pTriEx expression plasmid containing N-terminal Hisx6 tag. His-TRAIL was expressed in the E. coli BL-21 pLys strain and purified as previously described. Doxorubicin and cisplatin were purchased from Sigma. His-TRAIL, doxorubicin, and cisplatin were diluted in PBS to the desired concentration before using. To measure cell survival following treatment with TRAIL, cisplatin and doxorubicin, SiHa (2 × 10^4/well), C33A (1 × 10^4/well), and HNSCC cells (2 × 10^4/well) were seeded into 96-well plates and allowed to adhere overnight. Small molecules at the desired concentration were added and incubated at 37 °C for 4 h. As indicated, TRAIL, cisplatin, or doxorubicin was then added. The TRAIL treatment group contained cycloheximide (5 μg/ml) to inhibit de novo protein synthesis, and the cells were incubated for 16 h prior to measuring cell viability by the MTT assay preformed as described previously.[38] All experiments were repeated at least three times (three biological replicates, carried out on different days), with each experimental group measured in triplicate within each of these individual experiments. Data presented are from a representative experiment.

Setting [2] is: counter-screen, bead-based assay, 1.4 μM–3.2 mM tested.

GST-caspase 8/His-caspase 8, sequence (Q14790 1-184): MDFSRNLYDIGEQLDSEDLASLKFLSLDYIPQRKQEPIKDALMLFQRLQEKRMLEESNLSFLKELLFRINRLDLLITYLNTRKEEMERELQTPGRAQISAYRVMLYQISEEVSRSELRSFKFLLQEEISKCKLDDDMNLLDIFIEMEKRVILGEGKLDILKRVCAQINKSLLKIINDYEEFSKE
T1 sequence (P03126 whole entry): as the sequence (P03126 whole entry) above

As for `NCCCn1ccc2ccccc21` [compound 1, 3-(1H-indol-1-yl)propan-1-amine methanesulfonate], the EC50 was determined as 830 µM in assay [1] (counter-screen, bead-based assay, 1.4 μM–3.2 mM tested, read-out: EC50 for GST-caspase 8/His-caspase 8 interaction); 670 µM on GST-E6/His-E6AP; 630 µM at GST-E6/His-caspase 8.

With `c1ccc2[nH]cnc2c1` [compound 2, benzimidazole], the results for the EC50 (in assay [1]; at GST-E6/His-E6AP; on GST-E6/His-caspase 8) were 1050 µM, 1480 µM and 1040 µM, respectively.

In the case of `OCn1cnc2ccccc21` [compound 3, 1H-benzimidazole-1-methanol], the “EC50 for GST-caspase 8/His-caspase 8 interaction” value in assay [1] (setting [2]) is “No Inhibition”. Besides, on GST-E6/His-E6AP, the “EC50 for GST-E6/His-E6AP interaction” value is recorded as “No Inhibition”. Also, the “EC50 for TRAIL-induced apoptosis” value with SiHa cells was “No sensitization”. Besides, the “EC50 for GST-E6/His-caspase 8 interaction” value on GST-E6/His-caspase 8 is recorded as “No Inhibition”.

Turning to `COCc1nc2ccccc2[nH]1` [compound 4, 2-(methoxymethyl)-1H-benzimidazole], the “EC50 for GST-caspase 8/His-caspase 8 interaction” value in assay [1] (setting [2]) is given as “No inhibition”. Further, the “EC50 for GST-E6/His-E6AP interaction” value on GST-E6/His-E6AP is listed as “No inhibition”. Moreover, the “EC50 for GST-E6/His-caspase 8 interaction” value at GST-E6/His-caspase 8 is on record as “No inhibition”.
